According to publication PMC9653409, “Generative deep learning enables the discovery of a potent and selective RIPK1 inhibitor” (Nature Communications, 2022):
Like-named read-outs stand apart in the source and are kept apart here.

What was measured:
Test in all cases: Kinase inhibitory activity profiling of RI-962@10 µM (406 kinases, Eurofins)
Assay type in all cases: biochemical
[1] = biological target: panel of human kinases (kinase named in endpoint) (Homo sapiens, UniProt Q9H4A3); conditions: 10 µM; read-out: Activity (%), WNK1(h)
Method in brief: (§1)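 Radiometric filter-binding kinase assays: enzyme preincubated 15 min with compound in 8 mM MOPS pH 7.0, 0.2 mM EDTA, 250 μM peptide substrate, 10 mM magnesium acetate, 10 μM [γ-33P]-ATP. Reaction started with Mg/ATP, run 40 min at room temperature, stopped with phosphoric acid; 33P incorporation read by scintillation counting. Other kinases by similar protocols.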

[2] = biological target: panel of human kinases (kinase named in endpoint) (Homo sapiens, UniProt P53667); conditions: 10 µM; read-out: Activity (%), LIMK1(h)
Method in brief: as §1

[3] = biological target: panel of human kinases (kinase named in endpoint) (Homo sapiens, UniProt Q9UIK4); conditions: 10 µM; read-out: Activity (%), DAPK2(h)
Method in brief: as §1

[4] = biological target: panel of human kinases (kinase named in endpoint) (Homo sapiens, UniProt P42680); conditions: 10 µM; read-out: Activity (%), Tec(h) activated
Method in brief: as §1

[5] = biological target: panel of human kinases (kinase named in endpoint) (Homo sapiens, UniProt Q99986); conditions: 10 µM; read-out: Activity (%), VRK1(h)
Method in brief: as §1

[6] = biological target: panel of human kinases (kinase named in endpoint) (Homo sapiens, UniProt P29320); conditions: 10 µM; read-out: Activity (%), EphA3(h)
Method in brief: as §1

[7] = biological target: panel of human kinases (kinase named in endpoint) (Homo sapiens, UniProt Q02156); conditions: 10 µM; read-out: Activity (%), PKCε(h)
Method in brief: as §1

[8] = biological target: panel of human kinases (kinase named in endpoint) (Homo sapiens, UniProt P07949, V804M); conditions: 10 µM; read-out: Activity (%), Ret(V804M)(h)
Method in brief: as §1

[9] = biological target: panel of human kinases (kinase named in endpoint) (Homo sapiens, UniProt P31749); conditions: 10 µM; read-out: Activity (%), PKBα(h)
Method in brief: as §1

[10] = biological target: panel of human kinases (kinase named in endpoint) (Homo sapiens, UniProt Q9H093); conditions: 10 µM; read-out: Activity (%), NUAK2(h)
Method in brief: as §1

[11] = biological target: panel of human kinases (kinase named in endpoint) (Homo sapiens, UniProt Q9NYL2); conditions: 10 µM; read-out: Activity (%), ZAK(h)
Method in brief: as §1

[12] = biological target: panel of human kinases (kinase named in endpoint) (Homo sapiens, UniProt P08581, M1250T); conditions: 10 µM; read-out: Activity (%), Met(M1268T)(h)
Method in brief: as §1

[13] = biological target: panel of human kinases (kinase named in endpoint) (Homo sapiens, UniProt P00519, M351T); conditions: 10 µM; read-out: Activity (%), Abl (M351T)(h)
Method in brief: as §1

[14] = biological target: panel of human kinases (kinase named in endpoint) (Homo sapiens, UniProt Q9Y4K4); conditions: 10 µM; read-out: Activity (%), MAP4K5(h)
Method in brief: as §1

[15] = biological target: panel of human kinases (kinase named in endpoint) (Homo sapiens, UniProt P08631); conditions: 10 µM
Method in brief: as §1

[16] = biological target: panel of human kinases (kinase named in endpoint) (Homo sapiens, UniProt Q15835); conditions: 10 µM; read-out: Activity (%), GRK1(h)
Method in brief: as §1

[17] = biological target: panel of human kinases (kinase named in endpoint) (Homo sapiens, UniProt P07948); conditions: 10 µM; read-out: Activity (%), Lyn(h)
Method in brief: as §1

[18] = biological target: panel of human kinases (kinase named in endpoint) (Homo sapiens, UniProt Q9BQI3); conditions: 10 µM; read-out: Activity (%), HRI(h)
Method in brief: as §1

[19] = biological target: panel of human kinases (kinase named in endpoint) (Homo sapiens, UniProt Q00535); conditions: 10 µM
Method in brief: as §1

[20] = biological target: panel of human kinases (kinase named in endpoint) (Homo sapiens, UniProt Q6IQ55); conditions: 10 µM; read-out: Activity (%), TTBK2(h)
Method in brief: as §1

[21] = biological target: panel of human kinases (kinase named in endpoint) (Homo sapiens, UniProt P06239); conditions: 10 µM
Method in brief: as §1

[22] = biological target: panel of human kinases (kinase named in endpoint) (Homo sapiens, UniProt Q15303); conditions: 10 µM; read-out: Activity (%), ErbB4(h)
Method in brief: as §1

[23] = biological target: panel of human kinases (kinase named in endpoint) (Homo sapiens, UniProt O96017, I157T); conditions: 10 µM; read-out: Activity (%), CHK2(I157T)(h)
Method in brief: as §1

[24] = biological target: panel of human kinases (kinase named in endpoint) (Homo sapiens, UniProt Q5MAI5); conditions: 10 µM; read-out: Activity (%), CDKL4(h)
Method in brief: as §1

[25] = biological target: panel of human kinases (kinase named in endpoint) (Homo sapiens, UniProt Q04759); conditions: 10 µM; read-out: Activity (%), PKCθ(h)
Method in brief: as §1

panel of human kinases (kinase named in endpoint) (Homo sapiens, UniProt P06239), sequence (P06239 whole entry): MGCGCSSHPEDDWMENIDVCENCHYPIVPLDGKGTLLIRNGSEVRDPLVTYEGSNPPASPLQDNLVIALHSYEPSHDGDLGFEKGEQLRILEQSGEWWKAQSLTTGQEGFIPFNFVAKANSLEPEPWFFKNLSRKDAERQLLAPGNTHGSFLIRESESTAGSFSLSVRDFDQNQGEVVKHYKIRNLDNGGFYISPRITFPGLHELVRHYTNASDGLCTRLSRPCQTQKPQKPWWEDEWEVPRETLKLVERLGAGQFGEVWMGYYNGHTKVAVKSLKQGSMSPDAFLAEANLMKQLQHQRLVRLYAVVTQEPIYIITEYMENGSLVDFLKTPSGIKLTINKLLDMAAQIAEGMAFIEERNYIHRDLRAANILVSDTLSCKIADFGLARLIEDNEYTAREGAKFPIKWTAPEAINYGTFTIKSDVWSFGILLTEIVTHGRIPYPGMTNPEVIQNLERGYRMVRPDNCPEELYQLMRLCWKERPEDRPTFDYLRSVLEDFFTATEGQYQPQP
panel of human kinases (kinase named in endpoint) (Homo sapiens, UniProt Q00535), sequence (Q00535 whole entry): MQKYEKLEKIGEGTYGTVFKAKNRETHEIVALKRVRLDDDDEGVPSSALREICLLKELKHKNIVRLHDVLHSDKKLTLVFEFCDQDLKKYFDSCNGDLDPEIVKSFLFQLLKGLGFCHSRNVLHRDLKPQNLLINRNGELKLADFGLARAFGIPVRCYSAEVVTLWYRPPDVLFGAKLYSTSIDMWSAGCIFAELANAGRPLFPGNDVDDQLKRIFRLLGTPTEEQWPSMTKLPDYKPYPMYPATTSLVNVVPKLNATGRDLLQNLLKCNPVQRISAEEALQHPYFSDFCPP
panel of human kinases (kinase named in endpoint) (Homo sapiens, UniProt P08631), sequence (P08631 whole entry): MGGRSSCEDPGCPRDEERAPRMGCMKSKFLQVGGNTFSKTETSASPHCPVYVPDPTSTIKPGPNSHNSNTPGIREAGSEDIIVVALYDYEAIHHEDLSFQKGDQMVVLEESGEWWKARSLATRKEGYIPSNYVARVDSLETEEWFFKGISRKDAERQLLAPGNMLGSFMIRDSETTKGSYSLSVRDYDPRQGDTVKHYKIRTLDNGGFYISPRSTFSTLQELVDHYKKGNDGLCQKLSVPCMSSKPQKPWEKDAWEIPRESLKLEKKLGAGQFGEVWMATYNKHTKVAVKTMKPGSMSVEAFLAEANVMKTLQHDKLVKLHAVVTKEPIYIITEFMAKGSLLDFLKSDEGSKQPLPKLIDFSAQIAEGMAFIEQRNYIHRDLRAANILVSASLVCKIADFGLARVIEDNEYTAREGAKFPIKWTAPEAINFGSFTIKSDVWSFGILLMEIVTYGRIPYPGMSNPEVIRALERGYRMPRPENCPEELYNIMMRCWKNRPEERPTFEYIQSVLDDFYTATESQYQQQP
panel of human kinases (kinase named in endpoint) (Homo sapiens, UniProt Q15835), sequence (Q15835 whole entry): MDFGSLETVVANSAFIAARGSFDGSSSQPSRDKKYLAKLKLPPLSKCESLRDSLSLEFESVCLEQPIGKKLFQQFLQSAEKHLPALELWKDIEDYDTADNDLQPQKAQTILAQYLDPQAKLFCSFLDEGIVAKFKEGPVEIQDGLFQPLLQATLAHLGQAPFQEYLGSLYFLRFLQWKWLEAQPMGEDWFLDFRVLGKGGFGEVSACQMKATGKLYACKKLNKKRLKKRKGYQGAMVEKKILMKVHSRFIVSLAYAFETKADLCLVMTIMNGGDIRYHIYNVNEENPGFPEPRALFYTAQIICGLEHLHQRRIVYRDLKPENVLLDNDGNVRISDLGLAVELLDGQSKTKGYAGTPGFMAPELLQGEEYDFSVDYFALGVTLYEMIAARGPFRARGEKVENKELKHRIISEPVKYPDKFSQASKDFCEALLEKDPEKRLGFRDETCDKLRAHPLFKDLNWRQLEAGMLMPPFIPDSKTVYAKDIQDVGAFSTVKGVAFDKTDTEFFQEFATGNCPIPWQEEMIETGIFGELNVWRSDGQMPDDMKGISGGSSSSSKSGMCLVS
panel of human kinases (kinase named in endpoint) (Homo sapiens, UniProt Q9Y4K4), sequence (Q9Y4K4 whole entry): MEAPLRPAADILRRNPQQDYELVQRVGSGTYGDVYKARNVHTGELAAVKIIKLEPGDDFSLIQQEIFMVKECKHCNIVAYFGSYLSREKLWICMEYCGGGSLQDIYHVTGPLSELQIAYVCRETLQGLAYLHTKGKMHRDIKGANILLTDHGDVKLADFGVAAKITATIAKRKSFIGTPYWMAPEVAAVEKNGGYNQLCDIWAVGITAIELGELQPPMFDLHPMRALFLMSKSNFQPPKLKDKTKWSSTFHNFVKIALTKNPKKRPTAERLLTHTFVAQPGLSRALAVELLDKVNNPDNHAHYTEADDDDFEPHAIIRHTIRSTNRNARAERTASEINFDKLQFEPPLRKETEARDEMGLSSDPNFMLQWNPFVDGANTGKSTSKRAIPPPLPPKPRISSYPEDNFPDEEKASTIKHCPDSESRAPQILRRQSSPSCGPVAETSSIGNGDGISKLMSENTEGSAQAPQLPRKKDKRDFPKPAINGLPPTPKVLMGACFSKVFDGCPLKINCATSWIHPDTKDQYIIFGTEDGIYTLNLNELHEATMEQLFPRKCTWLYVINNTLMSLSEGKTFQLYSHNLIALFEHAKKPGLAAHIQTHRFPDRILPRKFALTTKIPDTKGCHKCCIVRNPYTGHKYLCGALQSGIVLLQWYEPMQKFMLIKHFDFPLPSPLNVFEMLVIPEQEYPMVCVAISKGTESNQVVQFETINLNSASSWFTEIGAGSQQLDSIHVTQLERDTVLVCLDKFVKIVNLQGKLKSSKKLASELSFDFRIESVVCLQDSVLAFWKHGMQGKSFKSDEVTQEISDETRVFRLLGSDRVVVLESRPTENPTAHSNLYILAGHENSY
panel of human kinases (kinase named in endpoint) (Homo sapiens, UniProt Q5MAI5), sequence (Q5MAI5 whole entry): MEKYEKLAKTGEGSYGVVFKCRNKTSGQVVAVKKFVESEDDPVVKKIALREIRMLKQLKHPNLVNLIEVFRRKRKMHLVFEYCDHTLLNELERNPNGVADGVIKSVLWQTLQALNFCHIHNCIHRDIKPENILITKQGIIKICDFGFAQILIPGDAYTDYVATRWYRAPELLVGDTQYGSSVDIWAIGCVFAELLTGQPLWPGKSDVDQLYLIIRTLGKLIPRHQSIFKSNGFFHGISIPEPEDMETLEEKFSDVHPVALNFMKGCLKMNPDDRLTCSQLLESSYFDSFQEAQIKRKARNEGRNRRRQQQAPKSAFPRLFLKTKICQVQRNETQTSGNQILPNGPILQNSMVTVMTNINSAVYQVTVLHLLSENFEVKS
panel of human kinases (kinase named in endpoint) (Homo sapiens, UniProt P31749), sequence (P31749 whole entry): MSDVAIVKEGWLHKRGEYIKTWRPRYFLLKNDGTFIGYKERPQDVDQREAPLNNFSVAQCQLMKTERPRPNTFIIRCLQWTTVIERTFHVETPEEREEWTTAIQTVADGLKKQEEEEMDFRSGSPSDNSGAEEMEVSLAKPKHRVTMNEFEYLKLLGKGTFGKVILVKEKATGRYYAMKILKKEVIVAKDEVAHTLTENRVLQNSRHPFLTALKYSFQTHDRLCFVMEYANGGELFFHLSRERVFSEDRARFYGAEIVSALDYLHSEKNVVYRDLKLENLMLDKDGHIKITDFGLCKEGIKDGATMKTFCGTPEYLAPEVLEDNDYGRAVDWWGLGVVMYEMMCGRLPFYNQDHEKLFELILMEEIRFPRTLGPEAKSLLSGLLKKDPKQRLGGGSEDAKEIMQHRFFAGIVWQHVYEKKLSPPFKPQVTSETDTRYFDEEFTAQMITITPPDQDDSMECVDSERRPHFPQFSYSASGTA
panel of human kinases (kinase named in endpoint) (Homo sapiens, UniProt Q99986), sequence (Q99986 whole entry): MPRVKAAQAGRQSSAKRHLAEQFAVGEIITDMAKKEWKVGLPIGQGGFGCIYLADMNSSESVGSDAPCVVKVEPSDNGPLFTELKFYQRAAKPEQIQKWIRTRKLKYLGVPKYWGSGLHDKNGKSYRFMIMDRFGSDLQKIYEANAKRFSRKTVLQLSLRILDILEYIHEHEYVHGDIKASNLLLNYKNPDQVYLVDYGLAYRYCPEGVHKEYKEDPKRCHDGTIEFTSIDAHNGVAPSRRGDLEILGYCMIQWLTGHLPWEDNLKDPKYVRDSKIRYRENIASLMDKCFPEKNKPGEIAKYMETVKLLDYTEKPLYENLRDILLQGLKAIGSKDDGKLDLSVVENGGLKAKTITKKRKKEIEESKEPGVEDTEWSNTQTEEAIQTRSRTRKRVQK
panel of human kinases (kinase named in endpoint) (Homo sapiens, UniProt Q04759), sequence (Q04759 whole entry): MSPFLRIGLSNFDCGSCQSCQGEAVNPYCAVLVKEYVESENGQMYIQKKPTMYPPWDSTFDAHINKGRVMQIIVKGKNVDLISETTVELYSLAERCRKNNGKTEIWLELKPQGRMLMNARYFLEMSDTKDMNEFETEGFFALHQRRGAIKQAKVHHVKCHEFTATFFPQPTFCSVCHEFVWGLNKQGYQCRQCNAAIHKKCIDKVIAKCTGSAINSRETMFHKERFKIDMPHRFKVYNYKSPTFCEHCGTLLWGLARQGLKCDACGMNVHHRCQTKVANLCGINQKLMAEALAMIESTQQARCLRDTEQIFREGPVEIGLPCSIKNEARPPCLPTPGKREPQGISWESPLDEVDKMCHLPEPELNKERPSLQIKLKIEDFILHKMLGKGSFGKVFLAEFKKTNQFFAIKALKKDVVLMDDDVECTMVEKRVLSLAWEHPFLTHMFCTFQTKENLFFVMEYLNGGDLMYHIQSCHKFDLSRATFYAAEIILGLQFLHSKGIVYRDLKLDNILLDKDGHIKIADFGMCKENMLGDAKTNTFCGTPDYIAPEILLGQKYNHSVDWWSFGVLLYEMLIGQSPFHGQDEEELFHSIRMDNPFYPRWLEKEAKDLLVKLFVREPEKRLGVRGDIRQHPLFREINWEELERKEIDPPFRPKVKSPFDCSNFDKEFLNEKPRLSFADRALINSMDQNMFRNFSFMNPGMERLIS

## CC(C)C(=O)Nc1nc2cc(-c3ccc4c(c3)c(C(=O)NC(C)c3ccccc3)cn4C)ccn2n1 (stereo not shown) [RI-962]
[1]
  activity at 10 µM: 75%
[2]
  activity at 10 µM: 97%
[3]
  activity at 10 µM: 104%
[4]
  activity at 10 µM: 103%
[5]
  activity at 10 µM: 86%
[6]
  activity at 10 µM: 105%
[7]
  activity at 10 µM: 99%
[8]
  activity at 10 µM: 115%
[9]
  activity at 10 µM: 80%
[10]
  activity at 10 µM: 86%
[11]
  activity at 10 µM: 72%
[12]
  activity at 10 µM: 115%
[13]
  activity at 10 µM: 121%
[14]
  activity at 10 µM: 100%
[15]; read-out: Activity (%), Hck(h)
  activity at 10 µM: 93%
[15]; read-out: Activity (%), Hck(h) activated
  activity at 10 µM: 97%
[16]
  activity at 10 µM: 111%
[17]
  activity at 10 µM: 65%
[18]
  activity at 10 µM: 99%
[19]; read-out: Activity (%), CDK5/p25(h)
  activity at 10 µM: 92%
[19]; read-out: Activity (%), CDK5/p35(h)
  activity at 10 µM: 118%
[20]
  activity at 10 µM: 81%
[21]; read-out: Activity (%), Lck(h)
  activity at 10 µM: 137%
[21]; read-out: Activity (%), Lck(h) activated
  activity at 10 µM: 81%
[22]
  activity at 10 µM: 98%
[23]
  activity at 10 µM: 92%
[24]
  activity at 10 µM: 70%
[25]
  activity at 10 µM: 131%
